Measurements from paper PMC8319670 (Science translational medicine, 2021).

How the values were obtained:
[1] = target: G6PD (Homo sapiens, UniProt P11413); assay: G6PD activity assay; format: biochemical; conditions: fig. S10
[2] = target: T1, H6PD (Homo sapiens, UniProt O95479); assay: In vitro H6PD activity assay; format: biochemical; conditions: for inhibition of H6PD activity: fig. S10
T1 sequence (O95479 20-791): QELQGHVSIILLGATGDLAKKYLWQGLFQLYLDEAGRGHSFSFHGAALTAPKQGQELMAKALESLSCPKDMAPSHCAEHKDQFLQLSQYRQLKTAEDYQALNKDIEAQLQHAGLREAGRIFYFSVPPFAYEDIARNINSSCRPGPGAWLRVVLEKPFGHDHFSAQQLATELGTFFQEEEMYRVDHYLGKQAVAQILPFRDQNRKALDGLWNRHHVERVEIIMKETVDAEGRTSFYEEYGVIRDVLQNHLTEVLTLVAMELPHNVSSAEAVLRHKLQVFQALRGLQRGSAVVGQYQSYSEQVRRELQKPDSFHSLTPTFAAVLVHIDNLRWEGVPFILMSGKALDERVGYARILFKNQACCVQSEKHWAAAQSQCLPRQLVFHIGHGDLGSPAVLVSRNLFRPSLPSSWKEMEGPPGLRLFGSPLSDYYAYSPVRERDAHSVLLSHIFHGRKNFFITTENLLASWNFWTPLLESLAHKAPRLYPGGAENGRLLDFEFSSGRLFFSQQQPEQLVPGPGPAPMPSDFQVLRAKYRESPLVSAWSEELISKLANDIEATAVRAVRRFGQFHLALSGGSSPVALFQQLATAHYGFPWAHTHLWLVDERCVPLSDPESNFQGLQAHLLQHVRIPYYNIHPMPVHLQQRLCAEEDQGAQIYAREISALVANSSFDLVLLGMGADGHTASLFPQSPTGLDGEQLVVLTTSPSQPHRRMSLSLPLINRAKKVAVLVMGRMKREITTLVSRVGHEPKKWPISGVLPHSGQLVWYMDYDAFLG

[3] = target: T1, H6PD; assay: Surface plasmon resonance; format: binding; conditions: SPR; Fig. 4A and fig. S9
[4] = target: T1, H6PD; assay: H6PD IC50 assay; format: biochemical; conditions: for loss of H6PD inhibitory potency: relative to rucaparib
[5] = tested on: enz-resistant LAPC4 cells; assay: Cell viability assay; format: cell-based, human; conditions: 100 nM cortisol with 10 μM enz, 5 days; Fig 4E
[6] = tested on: H6PD activity in LAPC4 cells; assay: Endoplasmic reticulum / microsomal NADPH in LAPC4 cells
[7] = tested on: H6PD; conditions: of four PARP inhibitors; cited from earlier work
[8] = tested on: H6PD protein; assay: H6PD protein immunoblot in enz-treated cell lines; format: cell-based, human; conditions: in vitro, LAPC4, VCaP and MDA-Pca-2b; transcript not increased
[9] = tested on: H6PD; assay: H6PD protein in prostate cancer patient tissues; design: species or system human; conditions: men with prostate cancer treated with enz and prostate tissues treated ex vivo; compared with pre-treatment
[10] = tested on: PARP-1; conditions: cited from earlier work
[11] = tested on: prostate cancer cells; assay: Glucocorticoid metabolism with apalutamide treatment; format: cell-based, human; conditions: similar to enzalutamide

G6PD, sequence (P11413 whole entry): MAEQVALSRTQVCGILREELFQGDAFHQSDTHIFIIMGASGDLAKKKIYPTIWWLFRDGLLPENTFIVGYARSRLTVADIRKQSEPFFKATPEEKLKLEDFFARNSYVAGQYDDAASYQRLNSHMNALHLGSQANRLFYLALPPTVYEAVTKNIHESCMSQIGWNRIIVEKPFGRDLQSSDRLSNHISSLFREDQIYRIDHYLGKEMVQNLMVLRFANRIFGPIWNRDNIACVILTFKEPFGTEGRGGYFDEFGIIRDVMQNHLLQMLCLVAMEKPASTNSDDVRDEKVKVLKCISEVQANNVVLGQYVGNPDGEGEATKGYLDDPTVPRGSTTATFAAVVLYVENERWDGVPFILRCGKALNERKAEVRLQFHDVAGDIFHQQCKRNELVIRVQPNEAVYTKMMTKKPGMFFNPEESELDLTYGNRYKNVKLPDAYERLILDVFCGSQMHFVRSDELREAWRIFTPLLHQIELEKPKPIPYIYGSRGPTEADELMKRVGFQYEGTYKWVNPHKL

For `O=C(c1cc(Cc2n[nH]c(=O)c3ccccc23)ccc1F)N1CCN(C(=O)C2CC2)CC1` [olaparib], which “inhibition of G6PD activity” value [1] is on record?
The value was “neither inhibited G6PD activity”.

And the “inhibition of H6PD activity” value [2]?
The value was “but not olaparib inhibited H6PD activity”.

And the “binding to H6PD” value [3]?
Its value is “but not olaparib (another PARP inhibitor) specifically bound H6PD”.

For `CNCc1ccc(-c2[nH]c3cccc4c3c2CCNC4=O)cc1` [Compound 2], which “loss of H6PD inhibitory potency” value [4] is on record?
Its value is “greater than 20 x”.

Which results are given for `CNCc1ccc(-c2[nH]c3cc(F)cc4c3c2CCNC4=O)cc1` [rucaparib]?
inhibition of G6PD activity [1]: neither inhibited G6PD activity; cell viability [5]: limited cell viability in vitro; H6PD generation of NADPH in enz-resistant prostate cancer ([6]; enz-resistant LAPC4 cells, 24 hours, microsomal NADPH, Fig 4C): inhibited H6PD generation of NADPH; H6PD generation of NADPH in vitro ([2]; H6PD protein, D-glucosamine 6-phosphate and NADP, 1 hour, Fig 4B): inhibited H6PD generation of NADPH in vitro; inhibition of H6PD activity [2]: inhibited H6PD activity; inhibition of H6PD activity ([2]; listed as Rucaparib): modest H6PD inhibitor; binding to H6PD [3]: specifically bound H6PD; off-target H6PD inhibition [7]: off-target H6PD inhibition was specifically identified only with rucaparib

Which “loss of H6PD inhibitory potency” value [4] does the source give for `CNCc1ccc(-c2[nH]c3cc(F)cc4c3c2CCN(C)C4=O)cc1` [Compound 4] here?
The value was ~ 10 x.

What does the source list for `CNC(=O)c1ccc(N2C(=S)N(c3ccc(C#N)c(C(F)(F)F)c3)C(=O)C2(C)C)cc1F` [enzalutamide]?
H6PD protein [8]: increased; increase in NADPH generation in the endoplasmic reticulum ([6]; LAPC4 cells, continuous enz treatment, p<0.0001): > 2 fold; H6PD in patient tissues post-treatment [9]: increase in H6PD was also detectable

Which results are given for `O=C1NCCc2c(-c3ccc(CO)cc3)[nH]c3cc(F)cc1c23` [Compound 5]?
PARP inhibition activity [10]: poor PARP inhibition activity; IC50 ([4]; read-out: H6PD IC50): 27 µM

Which “changes in glucocorticoid metabolism” value [11] does the source give for `CNC(=O)c1ccc(N2C(=S)N(c3cnc(C#N)c(C(F)(F)F)c3)C(=O)C23CCC3)cc1F` [apalutamide] here?
Its value is “induces similar changes in glucocorticoid metabolism”.
